Reference: patent US20090062273A1, “3-H-pyrazolopyridines and salts thereof, pharmaceutical compositions comprising same, methods of preparing same and uses of same” (priority 2006, published 2009)

Columns and labels:
Tie2 [1] = target: T1, Tie2 (Homo sapiens, UniProt Q02763); assay: Tie2 ELISA assay (cellular Tie2 autophosphorylation); format: cell-based; set-up: expressed in transfected cells; host or cells: CHO (CHO Tie2/DHFR); conditions: CHO cells stably transfected with Tie2, stimulated by angiopoietin-2; Tie2 autophosphorylation by sandwich-ELISA; read-out: Tie 2 activity (assay 1)
Description: Cellular activity of compounds of the present invention as inhibitors of Tie2 kinase activity was measured employing a Tie2 ELISA assay as described in the following paragraphs. Herein CHO cell-cultures, which are stably transfected by known techniques with Tie2 using DHFR deficiency as selection marker, are stimulated by angiopoietin-2. The specific autophosphorylation of Tie2 receptors is quantified with a sandwich-ELISA using anti-Tie2 antibodies for catch and anti-phosphotyrosine antibodies coupled to HRP for detection.
• 96 well tissue culture plate, sterile, Greiner • 96 well FluoroNunc plate MaxiSorp Surface C, Nunc • 96 well plate polypropylene for compound dilution in DMSO • CHO Tie2/DHFR (transfected cells) • PBS−; PBS++, DMSO • MEM alpha Medium with Glutamax-I without Ribonucleosides and Deoxyribonucleosides (Gibco #32561-029) • with 10% FCS after dialysis! and 1% PenStrep • Lysis buffer: 1 Tablet “Complete” protease inhibitor • 1 cap Vanadate (1 mL>40 mg/mL; working solution 2 mM) • ad 50 mL with Duschl-Puffer • pH 7.6 • Anti-Tie2-antibody 1:425 in Coating Buffer pH 9.6 • Stock solution: 1.275 mg/mL>working.: 3 μg/mL • PBST: 2 bottles PBS (10×)+10 ml Tween, fill up with VE-water • RotiBlock 1:10 in VE-water • Anti-Phosphotyrosine HRP-Conjugated 1:10000 in 3% TopBlock • 3% TopBlock in PBST • BM Chemiluminescence ELISA Substrate (POD) • solution B 1:100 solution A • SF9 cell culture medium • Ang2-Fc in SF9 cell culture medium
• Dispense 5×10^4 cells/well/98 μL in 96 well tissue culture plate • Incubate at 37° C./5% CO2 • After 24 h add compounds according to desired concentrations • Add also to control and stimulated values without compounds 2 μL DMSO • And mix for a few min at room temperature • Add 100 μL Ang2-Fc to all wells except control, which receives insect medium • Incubate 20 min at 37° C. • Wash 3× with PBS++ • Add 100 μl Lysis buffer/well and shake a couple of min at room temperature • Store lysates at […] before utilizing for the ELISA
• Coat 96 well FluoroNunc Plate MaxiSorp Surface C with anti-Tie2 mAb 1:425 in Coating buffer pH 9.6; 100 μL/well overnight at 4° C. • Wash 2× with PBST • Block plates with 250 μL/well RotiBlock 1:10 in VE-water • Incubate for 2 h at room temperature or overnight at 4° C. shaking • Wash 2× in PBST • Add thawed lysates to wells and incubate overnight shaking at 4° C. • Wash 2× with PBST • Add 100 μL/well anti-Phosphotyrosine HRP-Conjugated 1:10000 in 3% TopBlock (3% TopBlock in PBST) and incubate overnight under shaking • Wash 6× with PBST • Add 100 μL/well BM Chemiluminescence ELISA Substrate (POD) solutions 1 und 2 (1:100) • Determine luminescence with the LumiCount. Assay 2: Tie-2-Kinase HTRF-Assay without Kinase Preactivation
Target sequence in this assay (Q02763 23-1124, species assumed): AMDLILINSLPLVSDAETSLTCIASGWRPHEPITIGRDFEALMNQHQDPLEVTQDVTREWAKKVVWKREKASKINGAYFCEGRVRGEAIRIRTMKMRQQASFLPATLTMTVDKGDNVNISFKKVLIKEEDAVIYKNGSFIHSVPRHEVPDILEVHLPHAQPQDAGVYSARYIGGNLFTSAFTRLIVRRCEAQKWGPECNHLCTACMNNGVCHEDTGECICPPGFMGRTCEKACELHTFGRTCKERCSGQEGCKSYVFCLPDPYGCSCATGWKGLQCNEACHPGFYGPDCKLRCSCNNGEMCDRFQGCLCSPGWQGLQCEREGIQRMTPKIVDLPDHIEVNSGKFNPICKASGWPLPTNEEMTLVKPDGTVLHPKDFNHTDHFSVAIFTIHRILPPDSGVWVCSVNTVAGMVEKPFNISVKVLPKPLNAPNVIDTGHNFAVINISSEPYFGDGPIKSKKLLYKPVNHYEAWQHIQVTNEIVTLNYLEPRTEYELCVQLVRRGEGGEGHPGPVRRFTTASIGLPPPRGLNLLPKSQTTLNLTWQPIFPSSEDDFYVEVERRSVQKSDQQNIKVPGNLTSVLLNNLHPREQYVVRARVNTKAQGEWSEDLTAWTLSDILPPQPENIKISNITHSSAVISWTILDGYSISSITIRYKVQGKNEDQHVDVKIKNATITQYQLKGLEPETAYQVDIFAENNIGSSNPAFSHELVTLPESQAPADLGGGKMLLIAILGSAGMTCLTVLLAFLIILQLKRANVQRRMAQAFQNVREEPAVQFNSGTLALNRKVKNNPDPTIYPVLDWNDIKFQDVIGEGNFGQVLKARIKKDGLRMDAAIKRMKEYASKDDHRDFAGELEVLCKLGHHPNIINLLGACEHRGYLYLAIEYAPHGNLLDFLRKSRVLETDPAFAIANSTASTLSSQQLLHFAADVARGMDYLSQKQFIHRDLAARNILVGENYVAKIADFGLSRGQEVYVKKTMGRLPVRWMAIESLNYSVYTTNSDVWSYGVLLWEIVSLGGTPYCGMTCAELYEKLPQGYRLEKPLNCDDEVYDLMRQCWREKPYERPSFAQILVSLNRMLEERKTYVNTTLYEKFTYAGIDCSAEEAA

Tie2 [2] = target: T1, Tie2; assay: Tie-2-Kinase HTRF-Assay without kinase preactivation; format: biochemical; set-up: fusion protein of GST and the intracellular domains of Tie-2; GST; made in house; host or cells: insect cells (Hi-5); conditions: GST-Tie-2 intracellular domains, 10 μM ATP
Text: Tie2-inhibitory activity of compounds of the present invention was quantified employing two Tie2 HTRF assay as described in the following paragraphs.
A recombinant fusion protein of GST and the intracellular domains of Tie-2, expressed in insect cells (Hi-5) and purified by Glutathion-Sepharose affinity chromatography was used as kinase. Alternatively, commercially available GST-Tie2-fusion protein (Upstate Biotechnology, Dundee, Scotland) can be used As substrate for the kinase reaction the biotinylated peptide biotin-Ahx-EPKDDAYPLYSDFG (C-terminus in amid form) was used which can be purchased e.g. from the company Biosynthan GmbH (Berlin-Buch, Germany). Detection of phosphorylated product is achieved specifically by a trimeric detection complex consisting of the phosphorylated substrate, streptavidin-XLent (SA-XLent) which binds to biotin, and Europium Cryptate-labeled anti-phosphotyrosine antibody PT66 which binds to phosphorylated tyrosine.
Tie-2 (3.5 ng/measurement point) was incubated for 60 min at 22° C. in the presence of 10 μM adenosine-tri-phosphate (ATP) and 1 μM substrate peptide (biotin-Ahx-EPKDDAYPLYSDFG-NH2) with different concentrations of test compounds (0 μM and concentrations in the range 0.001-20 μM) in 5 μl assay buffer [50 mM Hepes/NaOH pH 7, 10 mM MgCl2, 0.5 mM MnCl2, 1.0 mM dithiothreitol, 0.01% NP40, protease inhibitor mixture (“Complete w/o EDTA” from Roche, 1 tablet per 2.5 ml), 1% (v/v) dimethylsulfoxide]. The reaction was stopped by the addition of 5 μl of an aqueous buffer (25 mM Hepes/NaOH pH 7.5, 0.28% (w/v) bovine serum albumin) containing EDTA (90 mM) and the HTRF (Homogeneous Time Resolved Fluorescence) detection reagents streptavidine-XLent (0.2 μM, from Cis Biointernational, Marcoule, France) and PT66-Eu-Chelate (0.3 ng/μl; a europium-chelate labelled anti-phospho-tyrosine antibody from Perkin Elmer).
The resulting mixture was incubated 1 h at 22° C. to allow the binding of the biotinylated phosphorylated peptide to the streptavidine-XLent and the PT66-Eu-Chelate. Subsequently the amount of phosphorylated substrate peptide was evaluated by measurement of the resonance energy transfer from the PT66-Eu-Chelate to the streptavidine-XLent. Therefore, the fluorescence emissions at 620 nm and 665 nm after excitation at 350 nm was measured in a HTRF reader, e.g. a Rubystar (BMG Labtechnologies, Offenburg, Germany) or a Viewlux (Perkin-Elmer). The ratio of the emissions at 665 nm and at […] was taken as the measure for the amount of phosphorylated substrate peptide. The data were normalised (enzyme reaction without inhibitor=0% inhibition, all other assay components but no enzyme=100% inhibition) and IC50 values were calculated by a 4 parameter fit using an inhouse software.
Target sequence in this assay (Q02763 770-1124 limits assumed, species assumed): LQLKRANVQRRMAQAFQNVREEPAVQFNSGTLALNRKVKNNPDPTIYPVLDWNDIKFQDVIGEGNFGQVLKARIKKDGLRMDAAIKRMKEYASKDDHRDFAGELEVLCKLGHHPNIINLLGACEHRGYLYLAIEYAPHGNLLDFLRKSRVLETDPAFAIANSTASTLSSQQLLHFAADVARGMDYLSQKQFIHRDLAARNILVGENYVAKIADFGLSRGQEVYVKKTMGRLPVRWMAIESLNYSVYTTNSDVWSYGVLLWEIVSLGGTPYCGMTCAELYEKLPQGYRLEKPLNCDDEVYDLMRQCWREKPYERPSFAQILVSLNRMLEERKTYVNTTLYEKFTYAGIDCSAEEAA

SMILES	IC50 (Tie2 [1]) [nM]	IC50 (Tie2 [2]) [nM]
Cn1ncc2c(-c3ccc(NC(=O)Nc4cc(C(C)(C)C)nn4-c4cncc(F)c4)cc3)cncc21 [Example 15.12, 1-[5-tert-Butyl-2-(5-fluoro-pyridin-3-yl)-2H-pyrazol-3-yl]-3-[4-(1-methyl-1H-pyrazolo[3,4-c]pyridin-4-yl)-phenyl]-urea]	< 501	< 501
COc1cccc(-n2nc(C(C)(C)C)cc2NC(=O)Nc2ccc(-c3cncc4c3cnn4C)cc2)c1 [Example 15.5, 1-[5-tert-Butyl-2-(3-methoxy-phenyl)-2H-pyrazol-3-yl]-3-[4-(1-methyl-1H-pyrazolo[3,4-c]pyridin-4-yl)-phenyl]-urea]	< 501	< 501
CCn1ncc2c(-c3ccc(NC(=O)Nc4cc(C(F)(F)F)ccc4F)c(F)c3)cncc21 [Example 11.2, 1-[4-(1-Ethyl-1H-pyrazolo[3,4-c]pyridin-4-yl)-2-fluoro-phenyl]-3-(2-fluoro-5-trifluoromethyl-phenyl)-urea]	< 501	< 501
CCn1ncc2c(-c3ccc(NC(=O)Nc4cc(C)ccc4F)c(F)c3)cncc21 [Example 11.3, 1-[4-(1-Ethyl-1H-pyrazolo[3,4-c]pyridin-4-yl)-2-fluoro-phenyl]-3-(2-fluoro-5-methyl-phenyl)-urea]	< 501	< 501
CN1CCN(Cc2ccc(NC(=O)Nc3ccc(-c4cncc5c4cnn5CCO)cc3)cc2C(F)(F)F)CC1 [Example 8.6, 1-{4-[1-(2-Hydroxy-ethyl)-1H-pyrazolo[3,4-c]pyridin-4-yl]-phenyl}-3-[4-(4-methyl-piperazin-1-ylmethyl)-3-trifluoromethyl-phenyl]-urea]	< 501	< 501
CC(C)c1cc(NC(=O)Nc2ccc(-c3cncc4c3cnn4C)cc2F)n(-c2cccc(F)c2)n1 [Example 15.2, 1-[2-Fluoro-4-(1-methyl-1H-pyrazolo[3,4-c]pyridin-4-yl)-phenyl]-3-[2-(3-fluoro-phenyl)-5-isopropyl-2H-pyrazol-3-yl]-urea]	< 501	< 501
Cn1ncc2c(-c3ccc(NC(=O)Nc4cc(C(C)(C)C)on4)cc3)cncc21 [Example 13.2, 1-(5-tert-Butyl-isoxazol-3-yl)-3-[4-(1-methyl-1H-pyrazolo[3,4-c]pyridin-4-yl)-phenyl]-urea]	< 501	< 501
Cn1ncc2c(-c3ccc(NC(=O)Nc4cc(C(F)(F)F)ccc4F)c(F)c3)cncc21 [Example 6.3, 1-[2-Fluoro-4-(1-methyl-1H-pyrazolo[3,4-c]pyridin-4-yl)-phenyl]-3-(2-fluoro-5-trifluoromethyl-phenyl)-urea]	< 501	< 501
Cn1ncc2c(-c3ccc(NC(=O)Nc4cc(C(C)(C)C)nn4-c4ccccc4)cc3)cncc21 [Example 13.4, 1-(5-tert-Butyl-2-phenyl-2H-pyrazol-3-yl)-13-[4-(1-methyl-1H-pyrazolo[3,4-c]pyridin-4-yl)-phenyl]-urea]	< 501	< 501
Cn1ncc2c(-c3ccc(NC(=O)Nc4cc(C(F)(F)F)ccn4)c(F)c3)cncc21 [Example 14.5, 1-[2-Fluoro-4-(1-methyl-1H-pyrazolo[3,4-c]pyridin-4-yl)-phenyl]-3-(4-trifluoromethyl-pyridin-2-yl)-urea]	< 501	< 501

Results, then the compound that gave them:

IC50 (Tie2 [1]) [nM]	IC50 (Tie2 [2]) [nM]	SMILES
< 501	< 501	O=C(Nc1cccc(C(F)(F)F)c1)Nc1ccc(-c2cncc3c2cnn3CCO)cc1F [Example 8.5, 1-{2-Fluoro-4-[1-(2-hydroxy-ethyl)-1H-pyrazolo[3,4-c]pyridin-4-yl]-phenyl}-3-(3-trifluoromethyl-phenyl)-urea]
< 501	< 501	Cc1cc(-c2cncc3c2cnn3C)ccc1NC(=O)Nc1cccc(C(F)(F)F)c1 [Example 4.1, 1-[2-Methyl-4-(1-methyl-1H-pyrazolo[3,4-c]pyridin-4-yl)-phenyl]-3-(3-trifluoromethyl-phenyl)-urea]
< 501	< 501	Cn1ncc2c(-c3ccc(NC(=O)Nc4cc(C(F)(F)F)ccc4F)cc3)cncc21 [Example 1.2, 1-(2-Fluoro-5-trifluoromethyl-phenyl)-3-[4-(1-methyl-1H-pyrazolo[3,4-c]pyridin-4-yl)-phenyl]-urea]
501 to 1000	501 to 1000	CN(C(=O)Nc1cccc(C(F)(F)F)c1)c1ccc(-c2cncc3c2cnn3C)cc1 [Example 6.1, 1-Methyl-1-[4-(1-methyl-1H-pyrazolo[3,4-c]pyridin-4-yl)-phenyl]-3-(3-trifluoromethyl-phenyl)-urea]
< 501	< 501	CN(C)C1CCN(c2ccc(C(F)(F)F)cc2NC(=O)Nc2ccc(-c3cncc4c3cnn4C)cc2)C1 (stereo not drawn) [Example 13.12, 1-[2-(3-Dimethylamino-pyrrolidin-1-yl)-5-trifluoromethyl-phenyl]-3-[4-(1-methyl-1H-pyrazolo[3,4-c]pyridin-4-yl)-phenyl]-urea]
< 501	< 501	CCn1ncc2c(-c3ccc(NC(=O)Nc4cccc(C(F)(F)F)c4)c(F)c3)cncc21 [Example 11.1, 1-[4-(1-Ethyl-1H-pyrazolo[3,4-c]pyridin-4-yl)-2-fluoro-phenyl]-3-(3-trifluoromethyl-phenyl)-urea]
< 501	< 501	COCCn1ncc2c(-c3ccc(NC(=O)Nc4cccc(C(F)(F)F)c4)cc3)cncc21 [Example 12.1, 1-{4-[1-(2-Methoxy-ethyl)-1H-pyrazolo[3,4-c]pyridin-4-yl]-phenyl}-3-(3-trifluoromethyl-phenyl)-urea]
< 501	< 501	Cn1ncc2c(-c3ccc(NC(=O)Nc4cccc(C(F)(F)F)c4)cc3)cncc21 [Example 1.4, 1-[4-(1-Methyl-1H-pyrazolo[3,4-c]pyridin-4-yl)-phenyl]-3-(3-trifluoromethyl-phenyl)-urea]
